Entries after “also recorded” stand apart in the source; their conditions may differ. Structures can show the parent of a compound that is named as a salt.
Columns and labels:
rat cortical neurons = assay type: cell-based
Procedure: Measuring production of intracellular ROS: Generation of ROS in response to Tat and PAF is assessed with the oxidizable dye indicator 5-(and-6)-chloromethyl-2′, 7′-dichlorodihydrofluorescein diacetate, acetyl ester (CM—H2DCFDA, abbreviated as “DCF”) (Molecular Probes, Eugene, Oreg.). Upon entering the cell by passive diffusion, the acetate groups are cleaved by intracellular esterases, and the thiol-reactive chloromethyl group binds to intracellular thiols, rendering the CM—H2DCF product trapped within the cell. […] [manufacturer's data] leaves the final fluorescent product CM-DCF, which is then imaged (excitation: 485, emission: 538) and quantitated in the same fashion as TMRM (above) as an indicator of relative levels of ROS in the culture.

[1] = tested on: HIV-1 isolates resistant to other protease inhibitors; details: read-out: ED50 dose for inhibiting viral replication; cited from earlier work
[2] = tested on: NO release by human primary monocytes; test: Tat-induced nitric oxide release by primary monocytes (Griess reaction); assay type: cell-based; details: co-treatment with Tat, 8 h; R-PIA 1 μM
Procedure: Human primary monocytes were treated with Tat in the presence or absence of the indicated adenosine receptor agonists for 8 h, and nitric oxide levels in the culture medium of the cells were then quantitated using the Griess reaction (Active Motif). Data represent mean+SEM of three experiments.
(§1) The effect of adenosine receptor activation on Tat-induced upregulation of iNOS expression and NO release was then determined. […] In contrast, incubation of cells with 1 μM R-PIA (an adenosine A1 receptor agonist) had no effect on Tat-induced iNOS expression or NO release (FIG. 11), implicating the A2A and A3 receptor subtypes in this anti-inflammatory effect. ZM241385 (an A2AR antagonist) or MRS 1220 (an A3R antagonist) could prevent the anti-inflammatory effects of CGS21680 or IB-MECA, respectively.

[3] = tested on: Tat-stimulated TNF release in monocytes; test: Tat-stimulated TNF release by primary monocytes (ELISA); assay type: cell-based, human; details: Tat 100 nM, 4 h; CGS21680 1 μM; ATL313, ATL455 1-4 nM; hydrochloride
Procedure: Human primary monocytes were treated with Tat (100 nM) in the presence or absence of the A2AR agonist, CGS21680 (CGS; 1 μM) or the A2AR antagonist, ZM241385 (100 nM) for 4 h. TNF levels in culture supernatants were then quantitated by ELISA. Data represent mean+SEM of three replicates, from a single representative experiment
(§2) Primary monocytes were seeded in separate triplicate wells, and exposed independently to LPS (100 ng/ml), vehicle (NT) or Tat (100 nM) in the presence or absence of the A2AR agonist, CGS21680 (1 μM). After 4 h, cells were harvested. (A) TNF was measured in cell supernatants by ELISA Mean data values (±S.D.) are shown for the triplicate wells. (B) The corresponding cells from each well in panel A were lysed and subjected to qRTPCR analysis. Each cDNA sample was analyzed in quadruplicate. Assay results are presented as fold induction of gene expression, compared to untreated cells, after normalization to levels of GAPDH. Data represent mean±SD for each individual experimental replicate/well.
Human primary monocytes were treated with Tat (100 nM) in the presence or absence of the A2AR agonist, ATL313 (1-4 nM) or the A2AR antagonist, ATL455 (1-4 nM) for 4 h. TNF levels in culture supernatants were then quantitated by ELISA. […]
Human primary monocytes were treated with Tat (100 nM) in the presence or absence of the A2AR agonist, ATL313 (at the indicated doses) for 4 h. TNF levels in culture supernatants were then quantitated by ELISA. […]
(6) Primary monocytes. […] Results are compared for both populations, as well as purity (as assessed by immunophenotyping using CD14, CD68 and MHC class II).
The effect of an A2AR agonist on TNF release by primary human monocytes was also determined. Monocytes were stimulated with HIV-1 Tat, in the presence or absence of the A2AR agonist CGS21680 or the A2AR antagonist ZM251385 and TNF release was then measured in cell culture supernatants using an ELISA assay.
Quantitative real-time PCR analysis was used to measure TNF message levels in Tat-treated monocytes. […]

[4] = tested on: rat cerebellar granule neurons (CGNs); test: Tat-induced apoptosis of cerebellar granule neurons (TUNEL); assay type: cell-based; details: Tat 500 nM, 48 h
Procedure: (§3) CGNs were exposed to HIV-1 Tat (Tat, 500 nM), or vehicle alone (NT), in the presence or absence of the A2A antagonist, ZM241385. After 48 h, cultures were analyzed for the percentage of apoptotic cells using the TUNEL assay. Data represent mean±SEM for one experiment that was performed in triplicate; data are representative of two independent experiments.
as §3, with “(No Tat),” for “(NT),”, “A2AR antagonists, ATL455 and ZM241385, or the A2AR agonists ATL313 and CGS21680.” for “A2A antagonist, ZM241385.”
(1) Primary rat cerebellar granule neurons (CGNs). CGNs represent a highly homogenous population of primary neurons which are susceptible to Tat and PAF-mediated cell killing and have been used in many of previous studies. CGN cells are isolated according to published procedures [Maggirwar, S. B., et al. 1999. J Neurochem 73:578-86] [Tong, N., et al. 2001. Eur J Neurosci 13:1913-22].
78(4): p. […] 22(6): p. 1102-6].
Primary rat cerebellar granule neurons (CGNs) were exposed to a neurotoxic concentration of HIV-1 Tat, in the presence or absence of an A2AR antagonist (ZM241385). […] It is important to note that CGNs express adenosine A2A receptors [Vacas, J., et al. 2003. Brain Res 992:272-280].
Primary cultures of rat cerebellar granule neurons (CGNs) were exposed to HIV-Tat ([…]) alone or together with increasing doses of the A2AR antagonist ATL-455 or A2A agonists ATL313 or CGS21680. Cells are treated with the test compounds for defined time intervals of up to 48 hours (1, 4, 8, 24, and 48 hours).

[5] = tested on: TNF and IL1 mRNA in primary human monocytes; test: qRTPCR of inflammatory gene expression in Tat-exposed monocytes; assay type: cell-based; details: Tat 100 nM, CGS21680 1 μM, 4 h
Procedure: as §2
Quantitative real-time PCR analysis was used to measure TNF message levels in Tat-treated monocytes. Primary human monocytes were prepared using CD14^+ immunomagnetic selection, and then exposed to LPS or to HIV-1 Tat for 4 hours, in the presence or absence of the A2AR agonist CGS21680. Culture supernatants were tested for TNF levels by ELISA assay (FIG. 13A), and RNA was extracted from cell pellets for quantitative reverse-transcription PCR (qRTPCR) analysis (FIG. 13B).

[6] = tested on: iNOS expression in human primary monocytes; test: Tat-induced iNOS expression in primary monocytes; assay type: cell-based; details: co-treatment with Tat
Procedure: as §1

rodent cortical cultures = test: FM1-43 vesicular uptake in cortical neuronal cultures; assay type: cell-based, rat; details: all doses of Tat
Procedure: (C) Moreover, activity dependent FM1-43 release by KC1 depolarization preferentially reduces the punctate vesicular labeling versus background signal. (D) In ≦14 and ≧14 day old primary neurons, 2.5 μg/ml Tat and 4.25 μg/ml Tat induces an increase in spontaneous activity dependent vesicular uptake, an effect that is both dose and culture age dependent.
Cortical neuronal cultures were treated with Tat or cPAF for varying periods of time as an in vitro model of pre-synaptic nerve terminal function, using the lipophilic, fluorescent styryl dye N-(3-triethylammoniumpropyl)-4-(4-(dibutylamino)styryl) pyridinium dibromide (FM1-43), which binds to synaptic vesicle membranes and is taken up into nerve terminals during normal activity (i.e., synaptic vesicle recycling). Fluorescent signal can be quantified to number of neurons, and after chemical depolarization with high concentrations of KC1, fluorescent signal is abolished, giving an index of nerve terminal activity in real-time. […] 68(7): p. 4628-35]. […]
FM1-43 uptake assay: Total spontaneous activity dependent vesicular uptake was assessed using the lipophilic styryl dye N-(3-triethylammoniumpropyl)-4-(4-(dibutylamino)styryl) pyridinium dibromide (FM1-43). […] Upon subsequent exocytosis, the vesicle fuses with the membrane, releasing its contents, and the FM1-43 dissociates back into the extracellular solution and loses its fluorescence. […]

OO [H202, hydrogen peroxide]
increase in ROS production (rat cortical neurons): 90%

COC(=O)N[C@H](C(=O)N[C@@H](Cc1ccccc1)[C@@H](O)CN(Cc1ccc(-c2ccccn2)cc1)NC(=O)[C@@H](NC(=O)OC)C(C)(C)C)C(C)(C)C [Atazanvir, Atazanavir]
EC50 [1]: 2 to 8 nM

CCNC(=O)[C@H]1O[C@@H](n2cnc3c(N)nc(NCCc4ccc(CCC(=O)O)cc4)nc32)[C@H](O)[C@@H]1O [CGS21680, 4-[2-[[6-Amino-9-(N-ethyl-b-D-ribofuranuronamidosyl)-9H-purin-2yl]amino]ethyl]benzenepropanoic acid hydrochloride]
effect on Tat-induced NO secretion [2]: complete abrogation | effect on Tat-induced monocyte activation (TNF release) [3]: abrogated; also recorded: strongly suppressed; also recorded: opposed | effect on Tat-induced neuronal apoptosis [4]: did not result in an increase in cell death | effect on IL1 mRNA levels [5]: little effect | effect on TNF transcription [5]: strongly suppressed | inhibition of Tat-induced iNOS expression [6]: roughly 50%

C[C@H](CCC(=O)NCCS(=O)(=O)O)[C@H]1CC[C@H]2[C@@H]3[C@@H](O)C[C@@H]4C[C@H](O)CC[C@]4(C)[C@H]3CC[C@]12C [TUDCA, tauroursodeoxycholic acid]
effect on Tat-induced increase in FM1-43 uptake (rodent cortical cultures): completely blocked; also recorded: completely eliminated
